# ChEMBL document CHEMBL1649484, “AbaR5, a large multiple-antibiotic resistance region found in Acinetobacter baumannii” (2009)
# Experiments:
# Assay type in all cases: functional
# Acinetobacter baumannii [1] = assay: Antimicrobial activity against Acinetobacter baumannii 3208 expressing multiple-antibiotic resistance gene AbaR5 by […] 2 system
# Acinetobacter baumannii [2] = assay: Antimicrobial activity against Acinetobacter baumannii 3208 expressing multiple-antibiotic resistance gene AbaR5 by […] 2 system in presence of beta-lactamase inhibitor Tazobactam
# Acinetobacter baumannii [3] = assay: Antimicrobial activity against Acinetobacter baumannii 3208 expressing multiple-antibiotic resistance gene AbaR5 by […] 2 system in presence of beta-lactamase inhibitor clavulanic acid
compound,measurement,setting,value
CO/N=C(\C(=O)N[C@@H]1C(=O)N2C(C(=O)[O-])=C(C[N+]3(C)CCCC3)CS[C@H]12)c1csc(N)n1 [CEFEPIME],MIC,Acinetobacter baumannii [1],16 µg/mL
O=C(O)c1cn(C2CC2)c2cc(N3CCNCC3)c(F)cc2c1=O [CIPROFLOXACIN],MIC,Acinetobacter baumannii [1],≥ 4 µg/mL
C[C@@H](O)[C@H]1C(=O)N2C(C(=O)O)=C(S[C@@H]3CN[C@H](C(=O)N(C)C)C3)[C@H](C)[C@H]12 [MEROPENEM],MIC,Acinetobacter baumannii [1],0.5 µg/mL
CCN1CCN(C(=O)N[C@@H](C(=O)N[C@@H]2C(=O)N3[C@@H]2SC(C)(C)[C@@H]3C(=O)O)c2ccccc2)C(=O)C1=O [PIPERACILLIN],MIC,Acinetobacter baumannii [2],≤ 4 µg/mL
CC1(C)S[C@@H]2[C@H](NC(=O)[C@H](C(=O)O)c3ccsc3)C(=O)N2[C@H]1C(=O)O [TICARCILLIN],MIC,Acinetobacter baumannii [3],32 µg/mL
NC[C@H]1O[C@H](O[C@H]2[C@H](O)[C@@H](O[C@H]3O[C@H](CO)[C@@H](O)[C@H](N)[C@H]3O)[C@H](N)C[C@@H]2N)[C@H](N)C[C@@H]1O [TOBRAMYCIN],MIC,Acinetobacter baumannii [1],≤ 1 µg/mL
GENTAMICIN,MIC,Acinetobacter baumannii [1],> 16 µg/mL
